The results in this text go back to PubChem BioAssay (NCI).

This experiment relates to P388 leukemia. The experiment is described as follows: NCI tumour cell line growth inhibition, 48 h.

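96-well plates; 48 h exposure; 5 concentrations. Endpoints by linear interpolation between flanking doses. Not reached: highest tested concentration assigned. Definition used: TGI = concentration required for complete inhibition of growth.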

In the case of `CCOC(=O)c1ccc(N[C@@H]2c3cc4c(cc3C(c3cc(OC)c(O)c(OC)c3)[C@H]3C(=O)OCC32)OCO4)cc1` (stereo partly specified), the TGI was determined as 20.8 nM.
